Experimental data as given in US20110207694A1, “MAMMALIAN HYPOTHALAMIC NUTRIENT MODULATION OF GLUCOSE METABOLISM” (priority 2005, published 2011).

Columns and labels:
high fat-fed rats [1] = test: Central glucose or lactate in regular chow vs 3-day high fat diet-fed animals: glucose production; format: in vivo, rat; conditions: central administration
Excerpt: The latter is an excellent model for diet-induced insulin resistance.

male Sprague-Dawley rats [2] = conditions: ICV 2 mM glucose, 5 μl/h (Lam et al., 2005b); cited from earlier work
high fat-fed rats [3] = test: ICV glucose or lactate in high fat-fed rats: plasma triglycerides and VLDL secretion; format: in vivo, rat
Experimental: High fat feeding. Male Sprague-Dawley rats were fed a highly palatable high fat diet for three days. These rats developed hyperinsulinemia and hepatic insulin resistance (Morgan et al., 2004). […] In a separate set of studies, lipoprotein secretion studies were performed at the beginning of the ICV infusions.

hepatic VLDL secretion = test: Lipoprotein (VLDL) secretion studies with tyloxapol; NMR particle size; format: in vivo, rat; conditions: ICV glucose
Experimental: Lipoproteins secretion and particles concentration and size measurements. Tyloxapol (600 mg/kg; ˜1 min) was intravenously injected to inhibit endogenous lipoprotein lipase. This high dose of tyloxapol ensured complete inhibition of triglyceride clearance during VLDL secretion studies. Plasma samples were taken every 30 min for triglycerides analysis and for lipoprotein profiling. Plasma VLDL particles concentration and size were determined by nuclear magnetic resonance spectroscopy (lipoprofile-II test) at Liposcience as previously described (Otvos et al., 1991; 1992). This NMR lipoprofile-II test is based on the assumption that each plasma lipoprotein particle of a particular size gives its own characteristic lipid NMR signal. The intensity of the signal is also in proportion to the concentration of the particle. The diameter range for large, medium and small VLDL is >60 nm, 35-60 nm, and 27-35 nm, respectively.
Selective hepatic branch vagotomy. The surgeries were performed as described (Lam et al., 2005c).
Treatment with SCD1 ASO. Five and two days before the lipoprotein secretion studies, rats received a single intra-peritoneal injection of either SCD1 or scrambled (SCR) ASO (100 mg/kg of body weight). […] In a separate set of studies, rats received intra-portal injection of either SCD1 or SCR ASO (40 mg/kg of body weight) (Gutierrez-Juarez et al., 2006) three days before the lipoprotein secretion studies.
Portal oleate infusion. Chronic portal catheter was implanted and 7 days were allowed for rat recovery. Oleic acid (45 mM; dissolved in 45% HBP) was infused at a rate of 40 μl/h for 2.5 h (1 h before the 90 min lipoprotein secretion studies). This dose enabled the reconstitution of hepatic oleyl-CoA levels back to normal during portal SCD1 ASO (FIG. 11c) or ICV glucose studies (FIG. 11d).

male Sprague-Dawley rats [4] = test: ICV infusion: plasma triglycerides and metabolites under basal and pancreatic clamp conditions; format: in vivo, rat
Excerpt: Animal preparation. We studied 10-week-old male Sprague-Dawley rats. Rats underwent stereotaxic surgery to indwell single catheters in the third cerebral ventricle {intracerebroventricular (ICV)(Obici et al., 2001) or bilateral catheters into the mediobasal hypothalamus (Lam et al., 2005c). One week later, we placed indwelling catheters in the internal jugular vein and carotid artery for sampling and infusion during the in vivo experiments (Obici et al., 2001). Recovery from surgery was monitored by measuring daily food intake and weight gain for 4-5 days after surgery.
Infusion protocols. The in vivo infusion experiments lasted a total of 360 min, and the experiments were carried out in rats that had their food removed ˜5 h before the experiments. Thus, at the time of the experiment, the rats are in post-absorptive state since their stomach should be completely emptied by 5 h fasting. […] This ICV glucose protocol physiologically elevate hypothalamic glucose concentration by ˜70% as previously described (Lam et al., 2005b) and is similar to that induced by a doubling of the circulating glucose levels (Lam et al., 2005b). During the ICV infusions, we monitored the plasma metabolite levels under pre-infused (0 min), basal (180-240 min) and pancreatic clamp (300-360 min) conditions. […] A basal insulin-pancreatic clamp was performed in the final 2 h (240-360 min) of the study as previously described (Lam et al., 2005b). In brief, a continuous infusion of insulin (1 mU/kg.min) and somatostatin (3 μg/kg.min) was administered, and a variable infusion of a 25% glucose solution was started and periodically adjusted to clamp and maintain the plasma glucose concentration at ˜8 mM. […] To examine the time-dependent effects of ICY glucose on plasma triglycerides, ICY (5 μl/h) 2 mM D-glucose or mannitol was administrated for 210 min and plasma triglyceride levels were monitored at 0, 20, 60, 120, 180, 210 min. […] Plasma triglycerides were monitored under basal, pancreatic clamp and tyloxapol-treated conditions. At the end of the infusion experiments, rats were anesthetized and tissue samples were freeze-clamped in situ with aluminum tongs pre-cooled in liquid nitrogen. All tissue samples were stored at −80° C. for subsequent analysis.
Biochemical analyses. Plasma glucose concentrations were measured by the glucose oxidase method (Glucose Analyzer II, Beckman Instruments, Inc., Fullerton, Calif.). […] FFA concentrations were determined by an enzyme assay in accordance with the manufacturer's specifications (Waco Pure Chemical Industries. Osaka. Japan). Plasma insulin concentrations (with rat and porcine insulin standards) were measured by radioimmunoassay (RIA). Plasma adiponectin concentrations were measured by RIA (Linco Inc., Austin, Tex., USA). Liver triglycerides were measured as described (Muse et al., 2004).
Calculations. Statistical analysis was done by unpaired Student's t test or analysis of variance as appropriate. Data are presented as means±SEM. All values were collapsed into a single value for each animal prior to the calculation of mean. The time period 180-240 min was averaged for the basal and the time period 300-360 min was averaged for the clamp conditions.

In the case of `O=C[C@H](O)[C@@H](O)[C@H](O)[C@H](O)CO` [glucose, D-glucose], the glucose production (high fat-fed rats [1]; 3-day high fat diet-fed animals) is given as “severely impaired”, the glucose production (high fat-fed rats [1]; regular chow animals) is given as “lowered glucose production” and the “rise in hypothalamic glucose levels” value (male Sprague-Dawley rats [2]) is given as ~70%. The “rate of appearance of VLDL-triglycerides in plasma” value (high fat-fed rats [3]; HF rats, tyloxapol) was “failed to decrease the rate of appearance of VLDL-triglycerides in plasma”, the “circulating levels of triglycerides” value (high fat-fed rats [3]; high fat-fed rats) was “failed to decrease the circulating levels of triglycerides” and the “hepatic content of triglycerides” value (hepatic VLDL secretion) was “increased”. The “rate of secretion of small (27-35 nm) and medium (35-60 nm) VLDL particles” value (hepatic VLDL secretion) was “tended to be higher”, the “secretion of large triglyceride-rich VLDL particles (diameter >60 nm)” value (hepatic VLDL secretion) was “dramatically and selectively blunted the secretion of large triglyceride-rich VLDL particles” and the “average size of the secreted VLDL particles” value (hepatic VLDL secretion; NMR spectroscopy) was “significant decrease in the average size of the secreted VLDL particles”. For the same compound, the “rate of secretion of VLDL-triglycerides” value (hepatic VLDL secretion; tyloxapol 600 mg/kg) was “suppressed the rate of secretion of VLDL-triglycerides within 90 minutes”, the “inhibitory effect on VLDL secretion in rats with resection of the hepatic branch of the vagus” value (hepatic VLDL secretion; preserved in sham-operated rats) was “abolished” and the “decrease in plasma triglyceride levels” value (male Sprague-Dawley rats [4]; ICV glucose, within 2 h, fraction) was “⅓”. For the same compound, the “maximal hypolipidemic effect (decrease in plasma triglycerides)” value (male Sprague-Dawley rats [4]; ICV glucose, within 3 h) was ~75%, the “plasma free fatty acids levels” value (male Sprague-Dawley rats [4]; ICV infusion) was “did not modify plasma fatty acids levels” and the plasma triglyceride levels (male Sprague-Dawley rats [4]; ICV infusion (glucose 2 mM, L-lactate 5 mM)) was “markedly decreased the circulating levels of triglycerides”.
